Source: patent US9505728B2, “Triazolone compounds and uses thereof” (INCEPTION 2, INC., priority 2012, dated 2016)

Target: T1, Human PPARα (Homo sapiens, UniProt Q07869)
T1 construct: host or cells: proprietary non-human mammalian cells
T1 sequence (Q07869 1-468): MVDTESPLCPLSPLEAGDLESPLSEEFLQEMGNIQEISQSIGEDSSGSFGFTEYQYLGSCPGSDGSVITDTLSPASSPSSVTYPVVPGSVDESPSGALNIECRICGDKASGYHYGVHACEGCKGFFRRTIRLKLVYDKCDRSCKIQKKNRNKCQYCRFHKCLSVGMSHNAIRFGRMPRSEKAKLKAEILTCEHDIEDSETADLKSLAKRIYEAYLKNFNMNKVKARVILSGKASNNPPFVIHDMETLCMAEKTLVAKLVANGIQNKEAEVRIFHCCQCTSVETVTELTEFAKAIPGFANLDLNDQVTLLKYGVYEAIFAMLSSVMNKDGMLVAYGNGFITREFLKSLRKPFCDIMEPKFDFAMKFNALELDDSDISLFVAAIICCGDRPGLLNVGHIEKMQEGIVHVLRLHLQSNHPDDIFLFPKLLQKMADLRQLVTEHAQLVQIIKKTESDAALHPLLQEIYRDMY
Assay: Human PPARα Reporter Assay (luciferase)
Assay type: cell-based
Conditions: human PPARα reporter cells, overnight incubation, antagonism; read-out: Luciferase IC50
Description: Human PPARα Reporter Assay
The screening of test compounds for agonist or antagonist activities against human PPARα receptors was performed using a commercial kit, Human PPARα Reporter Assay System (Indigo Biosciences, Cat. #IB00111).
This nuclear receptor assay system utilizes proprietary non-human mammalian cells engineered to provide constitutive, high-level expression of Human PPARα. Because these cells incorporate a PPARα-responsive luciferase reporter gene, quantifying expressed luciferase activity provides a sensitive surrogate measure of PPARα activity in the treated cells. The primary application of this reporter assay system is in the screening of test samples to quantify any functional activity, either agonist or antagonist, that they may exert against human PPARα.
Briefly, reporter cells are dispensed into wells of the assay plate and then immediately dosed with test compounds. Following an overnight incubation, the treatment media is discarded and Luciferase Detection Reagent (LDR) is added. The intensity of light emission from the ensuing luciferase reaction provides a sensitive measure that is directly proportional to the relative level of PPARα activation in the reporter cells.

Structure (SMILES)	IC50 [nM]
CCn1c(CCCc2ccc(-c3ccc(OC)c(CNS(C)(=O)=O)c3)cc2)nn(Cc2ccc(C(C)(C)C)cc2)c1=O [Example 186, 1-{[4-(tert-Butyl)phenyl]methyl}-4-ethyl-3-{3-[4-(4-methoxy-3-{[(methylsulfonyl)amino]methyl}phenyl)phenyl]propyl}-1,2,4-triazolin-5-one]	587
CCn1c(CCCc2ccc(-c3cccc(CC(=O)O)n3)cc2)nn(Cc2ccc(C(C)(C)C)cc2)c1=O [Example 50, 2-(6-{4-[3-(1-{[4-(tert-Butyl)phenyl]methyl}-4-ethyl-5-oxo-1,2,4-triazolin-3-yl)propyl]phenyl}-2-pyridyl) acetic acid]	568
CCn1c(CCCc2ccc(-c3cc(OC)c(N)cn3)cc2)nn(Cc2ccc(C(C)(C)C)cc2)c1=O [Example 111, 3-{3-[4-(5-Amino-4-methoxy(2-pyridyl))phenyl]propyl}-1-{[4-(tert-butyl)phenyl]methyl}-4-ethyl-1,2,4-triazolin-5-one]	641
CCC(=O)NS(=O)(=O)Cc1cccc(-c2ccc(CCCc3nn(Cc4ccc(C(C)(C)C)cc4)c(=O)n3CC)cc2)c1 [Example 116, N-(((4′-(3-(1-(4-(tert-Butyl)benzyl)-4-ethyl-5-oxo-4,5-dihydro-1H-1,2,4-triazol-3-yl)propyl)-[1,1′-biphenyl]-3-yl)methyl)sulfonyl)propionamide]	987
CCn1c(CCCc2ccc(-c3ccc(OC)c(NS(=O)(=O)c4ccccc4)n3)cc2)nn(Cc2ccc(C(C)(C)C)cc2)c1=O [Example 59, 1-{[4-(tert-Butyl)phenyl]methyl}-4-ethyl-3-[3-(4-{5-methoxy-6-[(phenylsulfonyl)amino](2-pyridyl)}phenyl)propyl]-1,2,4-triazolin-5-one]	3
CCn1c(CCCc2ccc(-c3ccc(OC)c(CC(=O)O)c3)c(OC)c2)nn(Cc2ccc(C(C)(C)C)cc2)c1=O [Example 159, 2-(4′-(3-(1-(4-(tert-Butyl)benzyl)-4-ethyl-5-oxo-4,5-dihydro-1H-1,2,4-triazol-3-yl)propyl)-2′,4-dimethoxy-[1,1′-biphenyl]-3-yl)acetic acid]	410
CCn1c(CCCc2ccc(-c3cccc(C(F)(F)C(=O)O)c3)cc2)nn(Cc2ccc(C(C)(C)C)cc2)c1=O [Example 28, 2-(4′-(3-(1-(4-(tert-Butyl)benzyl)-4-ethyl-5-oxo-4,5-dihydro-1H-1,2,4-triazol-3-yl)propyl)-[1,1′-biphenyl]-3-yl)-2,2-difluoroacetic acid]	1980
CCn1c(CCCc2ccc(-c3cc(CC(=O)O)ccn3)cc2)nn(Cc2ccc(C(C)(C)C)cc2)c1=O [Example 45, 2-(2-{4-[3-(1-{[4-(tert-Butyl)phenyl]methyl}-4-ethyl-5-oxo-1,2,4-triazolin-3-yl)propyl]phenyl}-4-pyridyl)acetic acid]	306
CCn1c(CCCc2ccc(-c3cc(NS(=O)(=O)c4ccccc4)ccn3)cc2)nn(Cc2ccc(C(C)(C)C)cc2)c1=O [Example 16, N-(2-(4-(3-(1-(4-(tert-Butyl)benzyl)-4-ethyl-5-oxo-4,5-dihydro-1H-1,2,4-triazol-3-yl)propyl)phenyl)pyridin-4-yl)benzenesulfonamide]	90
CCn1c(CCCc2ccc(-c3ccc(C)c(NS(=O)(=O)c4ccccc4)c3)cc2)nn(Cc2ccc(C(C)(C)C)cc2)c1=O [Example 152, 1-{[4-(tert-Butyl)phenyl]methyl}-4-ethyl-3-[3-(4-{4-methyl-3-[(phenylsulfonyl)amino]phenyl}phenyl)propyl]-1,2,4-triazolin-5-one]	160
CCC(=O)NS(=O)(=O)c1cccc(-c2ccc(CCCc3nn(Cc4ccc(C(C)(C)C)cc4)c(=O)n3CC)cc2)c1 [Example 103, N-((4′-(3-(1-(4-(tert-Butyl)benzyl)-4-ethyl-5-oxo-4,5-dihydro-1H-1,2,4-triazol-3-yl)propyl)-[1,1′-biphenyl]-3-yl)sulfonyl)propionamide]	436
CCn1c(CCCc2ccc(-c3ccc(NS(=O)(=O)c4ccccc4)c(C)n3)cc2)nn(Cc2ccc(C(C)(C)C)cc2)c1=O [Example 124, 1-{[4-(tert-Butyl)phenyl]methyl}-4-ethyl-3-[3-(4-{6-methyl-5-[(phenylsulfonyl)amino](2-pyridyl)}phenyl)propyl]-1,2,4-triazolin-5-one]	290
CCn1c(CCCc2ccc(-c3ccc(OC)c([C@@H](C)C(=O)O)c3)cc2)nn(Cc2ccc(C(C)(C)C)cc2)c1=O [Example 141, (R)-2-(4′-(3-(1-(4-(tert-Butyl)benzyl)-4-ethyl-5-oxo-4,5-dihydro-1H-1,2,4-triazol-3-yl)propyl)-4-methoxy-[1,1′-biphenyl]-3-yl)propanoic acid]	29
CCn1c(CCCc2ccc(-c3ccc(SC)c(CC(=O)O)c3)cc2)nn(Cc2ccc(C(C)(C)C)cc2)c1=O [Example 64, 2-(5-{4-[3-(1-{[4-(tert-Butyl)phenyl]methyl}-4-ethyl-5-oxo(1,2,4-triazolin-3-yl))propyl]phenyl}-2-methylthiophenyl)acetic acid]	38
CCn1c(CCCc2ccc(-c3ccc(OC)c(NS(=O)(=O)c4ccc(OC)nc4)n3)cc2)nn(Cc2ccc(C(C)(C)C)cc2)c1=O [Example 114, 1-{[4-(tert-Butyl)phenyl]methyl}-4-ethyl-3-{3-[4-(5-methoxy-6-{[(6-methoxy(3-pyridyl))sulfonyl]amino}(2-pyridyl))phenyl]propyl}-1,2,4-triazolin-5-one]	7
CCn1c(CCCc2ccc(-c3cccc(NC(=O)NCc4ccccc4)n3)cc2)nn(Cc2ccc(C(C)(C)C)cc2)c1=O [Example 155, 1-Benzyl-3-(6-(4-(3-(1-(4-(tert-butyl)benzyl)-4-ethyl-5-oxo-4,5-dihydro-1H-1,2,4-triazol-3-yl)propyl)phenyl)pyridin-2yl)urea]	362
CCn1c(CCCc2ccc(-c3ccc(C4(F)COC4)nc3)cc2)nn(Cc2ccc(C(C)(C)C)cc2)c1=O [Example 166, 1-(4-(tert-Butyl)benzyl)-4-ethyl-3-(3-(4-(6-(3-fluorooxetan-3-yl)pyridine-3-yl)phenyl)propyl)-1H-1,2,4-triazol-5(4H)-one]	91
CCn1c(CCCc2ccc(-c3cc(N)ccn3)cc2)nn(Cc2ccc(C(C)(C)C)cc2)c1=O [Example 11, 3-(3-(4-(4-Aminopyridin-2-yl)phenyl)propyl)-1-(4-(tert-butyl)benzyl)-4-ethyl-1H-1,2,4-triazol-5(4H)-one]	157
CCn1c(CCCc2ccc(-c3cccc(C4(C(N)=O)CC4)c3)cc2)nn(Cc2ccc(C(C)(C)C)cc2)c1=O [Example 14, 1-(4′-(3-(1-(4-(tert-butyl)benzyl)-4-ethyl-5-oxo-4,5-dihydro-1H-1,2,4-triazol-3-yl)propyl)-[1,1′-biphenyl]-3-yl)cyclopropanecarboxamide]	284
CCn1c(CCCc2ccc(-c3ccc(OC)c([C@H](C)C(=O)O)c3)cc2)nn(Cc2ccc(C(C)(C)C)cc2)c1=O [Example 142, (S)-2-(4′-(3-(1-(4-(tert-Butyl)benzyl)-4-ethyl-5-oxo-4,5-dihydro-1H-1,2,4-triazol-3-yl)propyl)-4-methoxy-[1,1′-biphenyl]-3-yl)propanoic acid]	272
CCn1c(CCCc2ccc(-c3ccc(OC)c(CC(=O)O)c3)c(C)c2)nn(Cc2ccc(C(C)(C)C)cc2)c1=O [Example 157, 2-(4′-(3-(1-(4-(tert-Butyl)benzyl)-4-ethyl-5-oxo-4,5-dihydro-1H-1,2,4-triazol-3-yl)propyl)-4-methoxy-2′-methyl-[1,1′-biphenyl]-3-yl)acetic acid]	94
CCn1c(CCCc2ccc(-c3cccc(NC(=O)Cc4ccccc4)n3)cc2)nn(Cc2ccc(C(C)(C)C)cc2)c1=O [Example 101, N-(6-{4-[3-(1-{[4-(tert-Butyl)phenyl]methyl}-4-ethyl-5-oxo(1,2,4-triazolin-3-yl))propyl]phenyl}(2-pyridyl))-2-phenylacetamide]	402
C=CCn1c(CCCc2ccc(-c3ccc(OC)c(CC(=O)O)c3)cc2)nn(Cc2ccc(C(C)(C)C)cc2)c1=O [Example 76, 2-(4′-(3-(4-Allyl-1-(4-(tert-butyl)benzyl)-5-oxo-4,5-dihydro-1H-1,2,4-triazol-3-yl)propyl)-4-methoxy-[1,1′-biphenyl]-3-yl)acetic acid]	261
CCn1c(CCCc2ccc(-c3ccc(CC(=O)O)c(OC)c3)cc2)nn(Cc2ccc(C(C)(C)C)cc2)c1=O [Example 199, 2-(4′-(3-(1-(4-(tert-Butyl)benzyl)-4-ethyl-5-oxo-4,5-dihydro-1H-1,2,4-triazol-3-yl)propyl)-3-methoxy-[1,1′-biphenyl]-4-yl)acetic acid]	292
CCn1c(CCCc2ccc(-c3ccc(OC)c(NS(=O)(=O)C4CC4)n3)cc2)nn(Cc2ccc(C(C)(C)C)cc2)c1=O [Example 190, 1-{[4-(tert-Butyl)phenyl]methyl}-4-ethyl-3-[3-(4-{6-[(cyclopropylsulfonyl)amino]-5-methoxy(2-pyridyl)}phenyl)propyl]-1,2,4-triazolin-5-one]	12
